Test results published in patent US20250129334A1, “LINEAGE SPECIFICATION DURING STEM CELL TRANSITION” (Amniotics AB, priority 2021, published 2025).

What was measured:
[1] = system: HE cells; assay: HE subculture with metabolic regulators, flow cytometry of hematopoietic output; type: cell-based, human
Description: The RB9-CB1 human iPSC line (Woods, N.-B. et al. Brief report: efficient generation of hematopoietic precursors and progenitors from human pluripotent stem cell lines. Stem Cells 29, 1158-1164 (2011)) was co-cultured with mouse embryonic fibroblasts (MEFs, Millipore), passaged every six days and processed to form embryoid bodies (EBs) as described previously (Guibentif, C. et al. Single-Cell Analysis Identifies Distinct Stages of Human Endothelial to-Hematopoietic Transition. Cell Reports 19, 10-19 (2017)). The differentiation protocol used in this study was previously described (Ditadi, A. & Sturgeon, C. M. Directed differentiation of definitive hemogenic endothelium and hematopoietic progenitors from human pluripotent stem cells. Methods 101, 65-72 (2016)), however, small modifications were made to induce both primitive and definitive hematopoiesis, as indicated below and in FIG. 6, a. Newly-formed EBs were first kept in SFD medium supplemented with 1 ng/ml Activin A (on days 0-2) and 3 μM CHIR99021 (on day 2 only). At day 3, media was switched to “Day 3-SP34” medium supplemented with 1 ng/ml Activin A (on day 3 only) and 3 μM CHIR99021 (on day 3 only) until day 6. On day 6, media was replaced by “Day 6-SP34” medium, until day 8. In some experiments where indicated, to obtain a higher yield of HSC-like cells, EBs were kept until day 10: in this case, EBs were plated onto Matrigel (8 μg/cm2, Corning)-coated dishes on day 8 and kept until day 10. Media was changed every day, except on days 5 and 7. On day 8 or 10 (as indicated), EBs were singularized with 5-6 rounds of 5-minute incubations with TryPLE Express (Thermo Fisher Scientific). CD34^+ cells were selected using the human CD34 MicroBead kit (Miltenyi Biotec) and stained with CD34-FITC, CD73-PE, VECad-PerCPCy5.5, CD38-PC7, CD184-APC, CD45-AF700, CD43-APCH7, GPA-eF450, CD90-BV605 and the viability marker 7AAD in order to sort HE (CD34^+CD43^−CXCR4^−CD73^−CD90^+VECad^+), EHT (CD34^+CD43^intCXCR4^−CD73^−CD90^+VECad^+) and HSC-like (CD34^+CD43^+CD90^+CD38^−) cells, according to previously described markers (Guibentif, C. et al. Single-Cell Analysis Identifies Distinct Stages of Human Endothelial to-Hematopoietic Transition. Cell Reports 19, 10-19 (2017); Ditadi, A. et al. Human definitive haemogenic endothelium and arterial vascular endothelium represent distinct lineages. Nat Cell Biol 17, 580-591 (2015); and Choi, K.-D. et al. Identification of the Hemogenic Endothelial Progenitor and Its Direct Precursor in Human Pluripotent Stem Cell Differentiation Cultures. Cell Reports 2, 553-567 (2012)).
Sorted HE (40,000), EHT (30,000) and HSC-like (5-20,000) cells were plated onto Matrigel (16 μg/cm2, Corning)-coated 96-well flat bottom plates in HE medium with 1% penicillin-streptomycin and kept in a humidified incubator at 37° C., 5% C02, 4% 02 overnight. The following day (day 0), wells were washed twice with PBS and fresh HE medium was added, together with 2-DG (1 mM), UK5099 (10 μM), DCA (3 mM or 10 mM), TSA (60 nM), TCP (300 nM), ACSS2i (5 μM), C646 (10 μM), CP-640186 (5 μM) or Atorvastatin (0.5 μM), where indicated. Media was changed and drugs were added every 2 days and cells were kept in a humidified incubator at 37° C., 5% CO2, 20% O2 for 6-7 days. Pictures were taken using an Olympus IX70 microscope equipped with a CellSens DP72 camera and CellSens Standard 1.6 software (Olympus). For single cell subcultures, single HE cells were directly sorted with a BD FACSAriaIII onto OP9-DL1 stroma in flat-bottom 96-well plates with 120 μl OP9 medium (OptiMEM medium with Glutamax (Invitrogen) with 10% FCS, 1% penicillin-streptomycin solution (Thermo Fisher Scientific) and 1% 2-mercaptoethanol (Invitrogen)) with SCF, IL-6, IL-11, IGF1 and EPO, and with or without 10 μM UK, or 3 mM or 10 mM DCA. The cells were kept in a humidified incubator at 37° C., 5% CO2, 4% O2 and media was replaced every 4 days. […]

[2] = system: HE cells; assay: Colony forming unit assay of subcultured HE cells; type: cell-based, human
Protocol: Subcultured HE cells were treated with StemPro Accutase Cell Dissociation Reagent for 2 minutes at 37° C. and dissociated cells were resuspended in 3 ml Methocult H4230 (STEMCELL Technologies, France) (prepared according to manufacturer's instructions, with 20 mL Iscove's Modified Dulbecco's Medium containing 2.5 μg hSCF, 5 μg GM-CSF, 2.5 μg IL-3 and 500 U EPO). Each mixture was divided onto 2 wells of a non-tissue culture treated 6-well plate. Following a 12-day incubation in a humidified incubator at 37° C., 5% CO2, 20% O2, colonies were morphologically distinguished and scored. For globin analysis, colonies in Methocult wells were harvested with PBS, washed thoroughly and frozen in RLT buffer with β-mercaptoethanol. Following RNA extraction and RT (Qiagen), gene expression was assessed with taqman probes by q-PCR. The taqman probes used for this assay are HBA1/2 (Hs00361191_g1), HBE1 (Hs00362216_m1), HBG2/1 (Hs00361131_g1) and KLF1 (Hs00610592_m1).

SMILES | decrease in CD43+GPA+ cells ([1]; day 6 of HE subculture, DCA 3 mM) [%] | increase in CD43+CD45+ cells / cell output ([1]; day 6 of subculture, deriving from HE, DCA 3 mM or shRNA) [%] | ratio of CFU-E colonies to the sum of CFU-G, CFU-GM and CFU-M colonies, lower than control ([2]; 6 days subculture, DCA 3 mM) | EdU incorporation (proliferation) ([1]; 24 h pulse, days 1 and 2 of subculture, UK5099 10 μM, DCA 3 mM) | frequency of HSC-like cells deriving from HE ([1]; 3 days subculture, UK5099 10 μM, DCA 3 mM) | proliferation of CD45+ cells deriving from HE ([1]; CTV, UK5099 10 μM, DCA 3 mM) | proliferation of the GPA+ population deriving from HE ([1]; CTV, day 3, UK5099 10 μM, DCA 3 mM) | CD43+GPA+ cell output ([1]; day 3 of HE subculture, UK5099 10 μM, 1-AA 4 mM, DCA 3 mM, vs control) | levels of total CD43+ cells ([1]; day 6, UK5099 10 μM, 1-AA 4 mM) | decrease in CD43+CD45+ population ([1]; day 6, deriving from HE, UK5099 10 μM) [fold] | granulocyte and macrophage colonies (CFU-G, GM and M) ([2]; 3 or 6 days of UK5099) | ratio of CFU-E colonies to the sum of CFU-G, CFU-GM and CFU-M colonies, higher than control ([2]; 6 days subculture, UK5099 10 μM) [fold] | erythroid colony (CFU-E) formation ([2]; UK5099 3 or 6 days, DCA 6-day treatment, vs untreated)
O=C(O)C(Cl)Cl [DCA, dichloroacetate] | 50 | 80 | more than 3 fold |  |  |  |  |  |  |  |  |  | 
N#CC(=Cc1cn(-c2ccccc2)c2ccccc12)C(=O)O [UK5099, 2-Cyano-3-(1-phenyl-1H-indol-3-yl)-2-propenoic acid] |  |  |  | no differences in proliferation | did not have an effect | did not have an effect | did not observe any differences | striking increase | unchanged | 2 | decreased | 20 | significantly increased
